From ChEMBL document CHEMBL3769313, “Synthesis, structural characterization, docking, lipophilicity and cytotoxicity of 1-[(1R)-1-(6-fluoro-1,3-benzothiazol-2-yl)ethyl]-3-alkyl carbamates, novel acetylcholinesterase and butyrylcholinesterase pseudo-irreversible inhibitors” (Bioorg Med Chem, 2016)
Activity calls are given as the source filed them. The rule behind the calls is not given here.

Legend:
[1] = n-Octanol-water partition coefficient, log P of the compound after 15 mins by shake flask method; format: physicochemical
[2] = Selectivity ratio of IC50 for electric eel AChE to IC50 for equine serum BChE
Cholinesterase = Cholinesterase (Equus caballus, UniProt P81908); assay: Inhibition of equine serum BChE by spectrophotometric-based Ellman's method
Cholinesterase, sequence (P81908 whole entry): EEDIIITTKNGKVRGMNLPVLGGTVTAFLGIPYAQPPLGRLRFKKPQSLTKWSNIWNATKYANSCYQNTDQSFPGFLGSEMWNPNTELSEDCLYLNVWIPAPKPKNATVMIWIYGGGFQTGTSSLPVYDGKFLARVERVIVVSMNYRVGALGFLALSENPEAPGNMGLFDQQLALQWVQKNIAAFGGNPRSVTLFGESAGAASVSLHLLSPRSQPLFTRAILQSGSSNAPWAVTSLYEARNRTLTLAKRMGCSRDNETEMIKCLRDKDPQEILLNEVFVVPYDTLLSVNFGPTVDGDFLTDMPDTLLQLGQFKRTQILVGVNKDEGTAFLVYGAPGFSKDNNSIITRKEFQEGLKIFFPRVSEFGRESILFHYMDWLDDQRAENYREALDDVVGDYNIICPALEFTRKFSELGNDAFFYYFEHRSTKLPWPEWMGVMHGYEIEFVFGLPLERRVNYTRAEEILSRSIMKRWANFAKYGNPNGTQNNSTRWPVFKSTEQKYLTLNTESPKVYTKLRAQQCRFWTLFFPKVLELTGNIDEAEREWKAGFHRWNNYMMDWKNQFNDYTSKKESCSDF

Acetylcholinesterase [3] = molecular target: Acetylcholinesterase (Electrophorus electricus, UniProt O42275); assay: Inhibition of electric eel AChE by spectrophotometric-based Ellman's method
Acetylcholinesterase (Electrophorus electricus, UniProt O42275), sequence (O42275 whole entry): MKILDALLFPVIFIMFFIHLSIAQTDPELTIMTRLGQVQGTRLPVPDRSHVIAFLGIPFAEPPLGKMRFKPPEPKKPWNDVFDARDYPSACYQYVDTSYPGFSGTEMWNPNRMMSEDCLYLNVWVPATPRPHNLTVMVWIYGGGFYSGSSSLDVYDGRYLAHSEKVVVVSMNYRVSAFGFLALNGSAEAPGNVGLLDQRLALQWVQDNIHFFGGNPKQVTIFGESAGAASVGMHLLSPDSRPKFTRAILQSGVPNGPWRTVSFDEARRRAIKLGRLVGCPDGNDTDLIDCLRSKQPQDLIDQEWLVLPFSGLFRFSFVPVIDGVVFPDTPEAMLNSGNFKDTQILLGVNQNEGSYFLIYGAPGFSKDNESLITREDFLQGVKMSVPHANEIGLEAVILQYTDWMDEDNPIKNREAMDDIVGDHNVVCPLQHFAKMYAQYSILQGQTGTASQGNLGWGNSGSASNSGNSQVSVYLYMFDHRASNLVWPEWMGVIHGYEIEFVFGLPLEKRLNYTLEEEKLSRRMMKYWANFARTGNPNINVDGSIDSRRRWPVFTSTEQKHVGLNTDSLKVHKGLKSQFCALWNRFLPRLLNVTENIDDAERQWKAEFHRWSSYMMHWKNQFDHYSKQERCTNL

[4] = Cytotoxicity against human Jurkat cells assessed as cell viability at 50 uM after 48 hrs by XTT assay relative to control; format: cell-based; settings: read-out: Activity
[5] = Cytotoxicity against human Jurkat cells assessed as cell viability at 250 uM after 48 hrs by XTT assay relative to control; format: cell-based; settings: read-out: Activity
[6] = Cytotoxicity against human Jurkat cells assessed as cell viability at 10 uM after 48 hrs by XTT assay relative to control; format: cell-based; settings: read-out: Activity
[7] = Cytotoxicity against human Jurkat cells assessed as cell viability at 100 uM after 48 hrs by XTT assay relative to control; format: cell-based; settings: read-out: Activity
[8] = Cytotoxicity against human Jurkat cells assessed as cell viability at 1 uM after 48 hrs by XTT assay relative to control; format: cell-based; settings: read-out: Activity
SK-BR-3 [9] = assay: Cytotoxicity against human SK-BR-3 cells assessed as decrease in cell proliferation index at 1 to 100 uM after 91 hrs by real-time cell analysis; format: cell-based; settings: sk-br-3, 91 h
[10] = molecular target: Acetylcholinesterase (Electrophorus electricus) (UniProt O42275); assay: Potency index, ratio of rivastigmine IC50 to compound IC50 for electric eel AChE
Acetylcholinesterase (Electrophorus electricus), sequence (O42275 24-633 limits assumed): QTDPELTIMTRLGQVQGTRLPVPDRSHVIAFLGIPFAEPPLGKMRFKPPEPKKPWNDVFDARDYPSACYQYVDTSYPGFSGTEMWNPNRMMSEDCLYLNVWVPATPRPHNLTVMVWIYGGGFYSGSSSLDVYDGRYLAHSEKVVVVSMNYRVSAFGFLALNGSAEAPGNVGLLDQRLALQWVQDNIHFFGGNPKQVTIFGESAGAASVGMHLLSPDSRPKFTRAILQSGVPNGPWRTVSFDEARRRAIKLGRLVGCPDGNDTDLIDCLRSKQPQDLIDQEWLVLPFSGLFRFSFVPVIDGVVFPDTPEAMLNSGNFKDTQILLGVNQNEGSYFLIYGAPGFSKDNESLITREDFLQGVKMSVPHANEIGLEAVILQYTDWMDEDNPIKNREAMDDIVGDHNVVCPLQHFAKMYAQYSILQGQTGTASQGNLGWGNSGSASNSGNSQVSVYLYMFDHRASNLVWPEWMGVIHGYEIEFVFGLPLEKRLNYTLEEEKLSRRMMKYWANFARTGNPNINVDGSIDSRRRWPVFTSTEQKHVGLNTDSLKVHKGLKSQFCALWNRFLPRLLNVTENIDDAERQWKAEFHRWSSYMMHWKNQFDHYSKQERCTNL

SK-BR-3 [11] = assay: Cytotoxicity against human SK-BR-3 cells assessed as decrease in cell proliferation index at 250 uM by real-time cell analysis; format: cell-based; settings: sk-br-3, 250 µM, TDE = time-dependent effect
Acetylcholinesterase [12] = molecular target: Acetylcholinesterase (Torpedo californica, UniProt P04058); assay: Pseudo-irreversible inhibition of Torpedo californica AChE using acetylthiocholine as substrate by cornish bowden plot analysis; parameters: species or system Tetronarce californica
Acetylcholinesterase (Torpedo californica, UniProt P04058), sequence (P04058 whole entry): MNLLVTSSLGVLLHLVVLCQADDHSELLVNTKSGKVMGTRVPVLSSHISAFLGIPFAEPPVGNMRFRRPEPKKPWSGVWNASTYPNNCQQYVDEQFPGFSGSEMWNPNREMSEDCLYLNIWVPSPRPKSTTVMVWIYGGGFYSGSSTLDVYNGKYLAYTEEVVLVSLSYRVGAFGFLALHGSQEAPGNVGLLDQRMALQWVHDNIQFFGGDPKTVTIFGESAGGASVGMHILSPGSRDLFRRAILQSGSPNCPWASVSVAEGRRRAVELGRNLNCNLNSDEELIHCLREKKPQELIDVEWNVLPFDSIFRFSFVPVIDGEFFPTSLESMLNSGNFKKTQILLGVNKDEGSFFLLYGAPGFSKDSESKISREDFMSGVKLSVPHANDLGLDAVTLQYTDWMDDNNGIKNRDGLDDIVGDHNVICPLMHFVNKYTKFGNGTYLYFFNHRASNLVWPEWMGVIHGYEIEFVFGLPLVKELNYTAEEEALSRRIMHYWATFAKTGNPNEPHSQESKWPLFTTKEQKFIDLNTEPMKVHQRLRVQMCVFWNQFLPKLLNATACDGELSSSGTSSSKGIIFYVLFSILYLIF

SK-BR-3 [13] = assay: Cytotoxicity against human SK-BR-3 cells assessed as decrease in cell proliferation index at 250 uM after 91 hrs by real-time cell analysis; format: cell-based; settings: sk-br-3, 91 h
[14] = molecular target: Acetylcholinesterase (Electrophorus electricus) (UniProt O42275); assay: Pseudo-irreversible inhibition of electric eel AChE at 5 to 9 uM by spectrophotometric-based Ellman's method
[15] = molecular target: Acetylcholinesterase (Electrophorus electricus) (UniProt O42275); assay: Pseudo-irreversible inhibition of electric eel AChE at 4 to 8 uM by spectrophotometric-based Ellman's method
[16] = molecular target: Acetylcholinesterase (Electrophorus electricus) (UniProt O42275); settings: 6 to 10 uM
Description: Pseudo-irreversible inhibition of electric eel AChE at 6 to 10 uM by spectrophotometric-based Ellman's method

Row | Structure (SMILES) | logP at 0.25 h [1] | Ratio IC50 [2] | IC50 (Cholinesterase) [µM] | IC50 (Acetylcholinesterase [3]) [µM] | further results
1 | COC(=O)N[C@H](C)c1nc2ccc(F)cc2s1 | 2.5 | 0.15 | 90.3 | 13.6 | 
2 | CC(C)COC(=O)N[C@H](C)c1nc2ccc(F)cc2s1 | 4.24 | 0.32 | 40.2 | 12.9 | 
3 | C[C@@H](NC(=O)OCC(F)(F)F)c1nc2ccc(F)cc2s1 | 2.69 | 0.64 | 63.4 | 40.5 | 
4 | C[C@@H](NC(=O)OCCCCl)c1nc2ccc(F)cc2s1 | 1.92 | 2.07 | 38.8 | 80.5 | 
5 | CC(C)OC(=O)N[C@H](C)c1nc2ccc(F)cc2s1 | 5.33 | 0.51 | 32.7 | 16.5 | 
6 | C[C@@H](NC(=O)OCC(Cl)(Cl)Cl)c1nc2ccc(F)cc2s1 | 2.34 | 11.1 | 8.31 | 92.2 | 
7 | CCCCOC(=O)N[C@H](C)c1nc2ccc(F)cc2s1 | 4.82 | 0.23 | 40.9 | 9.26 | viability at 48 h, 50 µM [4]: 88.7%; viability at 48 h, 250 µM [5]: 49.5%; viability at 48 h, 10 µM [6]: 80.2%; viability at 48 h, 100 µM [7]: 66.8%; viability at 48 h, 1 µM [8]: 90.3%; Activity (SK-BR-3 [9]): Non-toxic; Ratio IC50 [10]: < 10; Activity (SK-BR-3 [11]): tde
8 | COCCOC(=O)N[C@H](C)c1nc2ccc(F)cc2s1 | 3.35 | 0.85 | 66.3 | 56.2 | 
9 | C[C@@H](NC(=O)OC(C)(C)C)c1nc2ccc(F)cc2s1 | 4.41 | 0.46 | 23.1 | 10.5 | 
10 | C[C@@H](NC(=O)OCCBr)c1nc2ccc(F)cc2s1 | 3.17 | 0.3 | 38.4 | 11.4 | 
11 | CCN(C)C(=O)Oc1cccc([C@H](C)N(C)C)c1 [RIVASTIGMINE] |  |  |  |  | Ki (Acetylcholinesterase [12]): 0.033 M⁻¹ s⁻¹
12 | C[C@@H](NC(=O)OCC(F)(F)C(F)(F)C(F)(F)F)c1nc2ccc(F)cc2s1 | 3.2 | 1.1 | 74.5 | 81.9 | 
13 | C[C@@H](NC(=O)OCC(F)(F)C(F)F)c1nc2ccc(F)cc2s1 | 2.92 | 0.27 | 25 | 6.75 | viability at 48 h, 50 µM [4]: 89.3%; viability at 48 h, 250 µM [5]: 80.3%; viability at 48 h, 10 µM [6]: 85.3%; viability at 48 h, 100 µM [7]: 82.9%; viability at 48 h, 1 µM [8]: 93%; Activity (SK-BR-3 [13]): Toxic; Activity (SK-BR-3 [9]): Non-toxic; Ratio IC50 [10]: < 10; inhibition [14]: Active
14 | CCOC(=O)N[C@H](C)c1nc2ccc(F)cc2s1 | 4.2 | 0.3 | 20.1 | 6.06 | viability at 48 h, 50 µM [4]: 87.9%; viability at 48 h, 250 µM [5]: 77%; viability at 48 h, 10 µM [6]: 87.6%; inhibition [15]: Active; viability at 48 h, 100 µM [7]: 85.6%; viability at 48 h, 1 µM [8]: 87.4%; Ratio IC50 [10]: < 10
15 | C[C@@H](NC(=O)OCC(F)(F)Cl)c1nc2ccc(F)cc2s1 | 2.82 | 0.32 | 25.6 | 8.14 | viability at 48 h, 50 µM [4]: 89.6%; viability at 48 h, 250 µM [5]: 74%; viability at 48 h, 10 µM [6]: 86.6%; viability at 48 h, 100 µM [7]: 85.7%; viability at 48 h, 1 µM [8]: 91.1%; Ratio IC50 [10]: < 10; inhibition [16]: Active
16 | C[C@@H](NC(=O)OCCCl)c1nc2ccc(F)cc2s1 | 3.09 | 0.31 | 41.2 | 12.7 | 
17 | CCCOC(=O)N[C@H](C)c1nc2ccc(F)cc2s1 | 4.56 | 0.38 | 34.6 | 13.1 | 
